# Measured values from ChEMBL document CHEMBL5543059, “Discovery of anti-inflammatory natural flavonoids: Diverse scaffolds and promising leads for drug discovery” (Eur J Med Chem, 2023).
# Tested on: RAW264.7
# Test: Antiinflammatory activity in LPS-induced mouse RAW264.7 cells assessed as reduction in COX2 mRNA expression incubated for 24 hrs by qRT-PCR analysis
# Assay type: functional, cell-based
# Details: RAW264.7, 24 h
row,IC50 [µM],Compound
1,11.7,CC(C)=CCC/C(C)=C/Cc1c(C2CC(=O)c3c(O)cc(O)cc3O2)ccc(O)c1O (stereo not drawn)
2,11.7,CC(C)=CCC/C(C)=C/Cc1c(O)cc2c(c1O)C(=O)CC(c1ccc(O)c(O)c1)O2 (stereo not drawn)
3,11.7,CC(C)=CCC/C(C)=C/Cc1cc(C2CC(=O)c3c(O)cc(O)cc3O2)cc(O)c1O (stereo not drawn)
4,11.7,CC(C)=CCC/C(C)=C/Cc1cc(C2CC(=O)c3c(O)cc(O)cc3O2)ccc1O (stereo not drawn)

# Tested on: Peritoneal macrophage
# Test: Antiinflammatory activity in mouse peritoneal macrophages assessed as fold reduction in LPS-induced TNFalpha level at 20 uM incubated for 4 hrs by ELISA method
# Assay type: functional
# Details: not given
row,Compound,fold change (FC)
1,O=C(O)Cc1ccccc1Nc1c(Cl)cccc1Cl [DICLOFENAC],1.8

# Tested on: BV-2
# Test: Antiinflammatory activity in mouse BV-2 cells assessed as reduction in LPS-induced NO production pre-treated with compound for 1 hr followed by LPS-stimulation and measured for 23 hrs by Griess reagent based analysis
# Assay type: functional, cell-based
# Details: not given
row,IC50 [µM],Compound
1,11.3,COc1c(-c2ccc3c(c2)OCO3)oc2c(ccc3oc(C(C)(C)O)cc32)c1=O
2,6.88,COc1c(-c2ccc(O)c(O)c2)oc2c(CC=C(C)C)c3c(c(O)c2c1=O)C=CC(C)(C)O3
3,11.3,COc1cc2oc(-c3ccc4c(c3)OCO4)c(OC)c(=O)c2cc1OC
4,11.3,COc1c(-c2ccccc2)oc2c3c(ccc2c1=O)OC(C)(C)[C@H](O)C3
5,11.3,CC(=O)O[C@@H]1c2c(ccc3c(=O)c(O)c(-c4ccccc4)oc23)OC(C)(C)[C@@H]1OC(C)=O
6,2.88,CC(C)=CCc1cc(-c2oc3cc(O)cc(O)c3c(=O)c2O)ccc1O [ISOLICOFLAVONOL]

# Tested on: Neutrophil
# Test: Inhibition of fMLF/CB-induced human Neutrophil activation assessed as reduction in superoxide anion generation pre-incubated for 2 mins prior to CB induction for 3 mins followed by fMLF addition by spectrophotometric analysis
# Assay type: functional, cell-based
# Details: not given
row,IC50 [µM],Compound
1,≤ 12.5,COc1cc(O)c2c(=O)cc(-c3ccc(OC)c(OC)c3)oc2c1
2,≤ 12.5,COc1cc(O)c2c(=O)cc(-c3ccc(OC)c(OC/C=C(\C)CCC=C(C)C)c3)oc2c1
3,≤ 12.5,COc1cc(O)c2c(=O)cc(-c3cc(OC)c(OC/C=C(\C)CCC=C(C)C)c(OC)c3)oc2c1

# Tested on: THP-1
# Test: Anti-inflammatory activity in LPS-stimulated human THP-1 cells assessed as reduction of TNFalpha measured for 12 hrs by ELISA method
# Assay type: functional, cell-based
# Details: THP-1, 12 h
row,IC50 [µM],Compound
1,2.4,COc1ccc2oc(-c3ccc(OC)c(OC)c3)cc(=O)c2c1
2,12.4,COc1c(OC)c(O)c2c(=O)cc(-c3ccc(O)c(O)c3)oc2c1OC [SIDERITIFLAVONE]
3,8.1,COc1c(OC)c(O)c2c(=O)cc(-c3ccc(O)cc3)oc2c1OC [XANTHOMICROL]

# Tested on: J774.A1
# Test: Anti-inflammatory activity in mouse J774.A1 macrophage cells assessed as reduction in LPS-induced TNF-alpha production
# Assay type: functional, cell-based
# Details: not given
row,Compound,IC50 [µM]
1,COc1c2c(cc3oc(-c4ccccc4)cc(=O)c13)OCO2,0.22
2,COc1cc2oc(-c3ccccc3)cc(=O)c2c(O)c1O,0.22
3,COc1cc2oc(-c3ccccc3)cc(=O)c2c(O)c1OC [MOSLOFLAVONE],0.22

# Tested on: J774.A1
# Test: Antiinflammatory activity in LPS-induced mouse J774.A1 macrophage cells assessed as reduction in LPS-induced IL-1 beta level
# Assay type: functional, cell-based
# Details: not given
row,Compound,IC50 [µM]
1,COc1c2c(cc3oc(-c4ccccc4)cc(=O)c13)OCO2,6.4
2,COc1cc2oc(-c3ccccc3)cc(=O)c2c(O)c1O,6.4
3,COc1cc2oc(-c3ccccc3)cc(=O)c2c(O)c1OC [MOSLOFLAVONE],6.4

# Tested on: RAW264.7
# Test: Anti-inflammatory activity in mouse RAW264.7 cells assessed as inhibition of LPS-induced nitric oxide production preincubated for 2 hrs followed by LPS stimulation and measured after 24 hrs by Griess assay
# Assay type: functional, cell-based
# Details: not given
row,IC50 [µM],Compound
1,20,CC1(C)C=Cc2cc(-c3coc4cc(O)cc(O)c4c3=O)cc(O)c2O1
2,0.25,CC(C)=CCc1c(O)ccc(-c2coc3c(CC=C(C)C)c(O)cc(O)c3c2=O)c1O
3,0.8,CC1(C)C=Cc2c(O)ccc(-c3coc4cc(O)cc(O)c4c3=O)c2O1

# Tested on: BV-2
# Test: Antiinflammatory activity against mouse BV-2 cells assessed as reduction in LPS induced NO production measured for 24 hrs by Griess reagent based analysis
# Assay type: functional, cell-based
# Details: BV-2, 24 h
row,IC50 [µM],Compound
1,29.1,Oc1cc(O)c2c(c1)O[C@@H](c1ccc(O)c(O)c1)[C@@H](O)C2 [(+)-EPICATECHIN]
2,26.1,Oc1cc(O)c2c(c1)O[C@H](c1ccc(O)c(O)c1)[C@@H](O)C2 [CIANIDANOL]
3,14.8,CNC(=N)NCCC[C@H](N)C(=O)O [TILARGININE]

row,Compound,IC50 [µM]
1,Oc1cc(O)c2c(c1)O[C@H](c1cc(O)c(O)c(O)c1)[C@@H](O)C2 [GALLOCATECHIN],30.3

# Tested on: RAW264.7
# Test: Anti-inflammatory activity in mouse RAW264.7 cells assessed as inhibition of LPS-induced nitric oxide production measured after 18 hrs by Griess assay
# Assay type: functional, cell-based
# Details: RAW264.7, 18 h
row,IC50,Compound
1,9.73 µM,Cc1c(O)c2c(c(C(=O)C(C)C)c1O)OC(c1ccccc1)CC2=O (stereo not drawn)
2,20 µM,Cc1c(O)c(C)c2c(c1O)C(=O)C[C@@H](c1ccc(O)c(O)c1)O2
3,6.1 µg/mL,O=C1CC(c2ccc(O)cc2O)Oc2cc(O)cc(O)c21 (stereo not drawn) [STEPPOGENIN]

# Tested on: BV-2
# Test: Anti-inflammatory activity in mouse BV-2 cells assessed as inhibition of LPS-induced NO production preincubated with compound for 1 hrs followed by LPS stimulation and measured after 24 hrs by Griess reagent based assay
# Assay type: functional, cell-based
# Details: not given
row,IC50 [µM],Compound
1,4.2,COc1cc(O)c2c(=O)c(OC)c(-c3ccc(O)c(O)c3)oc2c1
2,11.1,COc1ccc(-c2oc3cc(O)cc(O)c3c(=O)c2OC)cc1O

# Tested on: RAW264.7
# Test: Antiinflammatory activity in LPS-activated mouse RAW264.7 cells assessed as inhibition of ROS production at 10 uM relative to control
# Assay type: functional
# Parameters: scale not given: the % may be the effect or the level left
# Details: not given
row,Compound,Activity [%]
1,COc1c(/C=C/C(=O)c2ccc(O)cc2)ccc(O)c1O,80
2,C=CC(C)(C)c1cc(/C=C/C(=O)c2ccc(O)cc2)c(OC)c(O)c1O,80
3,COc1cc(O)ccc1/C=C/C(=O)c1ccc(O)cc1 [ECHINATIN],80

# Tested on: RAW264.7
# Test: Anti-neuroinflammatory activity in mouse RAW264.7 cells assessed as inhibition of LPS-induced NO production pre-incubated for 1 hr followed by LPS stimulation and measured after 24 hrs by Griess reagent based assay
# Assay type: functional, cell-based
# Details: not given
row,IC50 [µM],Compound
1,0.89,COc1c2c(cc3oc(=O)c(-c4ccc(O)cc4)c(O)c13)OC(C)(C)C=C2

# Tested on: Mus musculus
# Test: Antiinflammatory activity against TPA-induced CD-1 mouse ear edema model assessed as reduction in ear edema at 1 uM relative to control
# Assay type: functional
# Parameters: scale not given: the % may be the effect or the level left
# Details: not given
row,Compound,Activity [%]
1,CC(=O)O[C@@H]1c2c(ccc3c(=O)c(O)c(-c4ccccc4)oc23)OC(C)(C)[C@@H]1OC(C)=O,12.28

# Tested on: B16-F10
# Test: Anti-inflammatory activity in LPS-stimulated mouse B16-F10 cells assessed as reduction in TNFalpha production measured for 12 hrs by ELISA method
# Assay type: functional, cell-based
# Details: B16-F10, 12 h
row,IC50 [µM],Compound
1,1.3,COc1ccc2oc(-c3ccc(OC)c(OC)c3)cc(=O)c2c1
2,5.6,COc1c(OC)c(O)c2c(=O)cc(-c3ccc(O)c(O)c3)oc2c1OC [SIDERITIFLAVONE]
3,3.8,COc1c(OC)c(O)c2c(=O)cc(-c3ccc(O)cc3)oc2c1OC [XANTHOMICROL]
